Laboratory results reported in patent publication US20110054031A1, “Ophthalmic NSAIDS as Adjuvants” (ISTA Pharmaceuticals, Inc., priority 2008, published 2011).
Blank lines part the entries; values can stand above or below the molecule they belong to.

Assays:
COX-2 [1] = target: T1, COX-2 (Homo sapiens, UniProt P35354); assay: COX-2 enzyme inhibition (Table 1, relative potency of ocular NSAIDs); assay type: biochemical; conditions: ratio of IC50 values
T1 sequence (P35354 18-604): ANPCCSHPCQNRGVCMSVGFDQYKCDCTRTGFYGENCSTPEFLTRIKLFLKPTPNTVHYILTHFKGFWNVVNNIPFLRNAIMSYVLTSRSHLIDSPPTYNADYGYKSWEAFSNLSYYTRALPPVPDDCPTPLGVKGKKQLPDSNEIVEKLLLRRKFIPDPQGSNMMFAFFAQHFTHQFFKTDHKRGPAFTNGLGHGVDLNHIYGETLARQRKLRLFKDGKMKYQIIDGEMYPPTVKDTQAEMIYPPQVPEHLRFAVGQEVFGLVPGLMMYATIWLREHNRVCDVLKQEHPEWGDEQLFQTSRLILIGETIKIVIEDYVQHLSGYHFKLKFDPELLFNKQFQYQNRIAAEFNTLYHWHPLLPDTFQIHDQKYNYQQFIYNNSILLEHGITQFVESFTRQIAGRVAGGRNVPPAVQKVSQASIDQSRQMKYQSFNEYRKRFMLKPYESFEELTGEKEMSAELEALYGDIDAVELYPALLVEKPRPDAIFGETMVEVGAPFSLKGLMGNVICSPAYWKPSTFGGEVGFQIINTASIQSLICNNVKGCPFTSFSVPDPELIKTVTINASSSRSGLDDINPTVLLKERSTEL
From the text: NSAIDs vary in their relative potency against COX-1 and COX-2. […] Several in vitro assays are used to determine IC50 values, making the values dependent upon the animal model (tissue and stimulus) used in the experiment and variable between laboratories. Thus, it is important that the assay type is defined when making comparisons between IC50 measurements.

COX-1 = COX-1 (Homo sapiens, UniProt P23219); conditions: cited from earlier work
COX-2 [2] = target: T1, COX-2; conditions: cited from earlier work
[3] = eye drops; cited from earlier work
human recombinants COX-2 = target: T2, human recombinants COX-2 (Homo sapiens, UniProt P35354); conditions: relative to ketorolac; cited from earlier work
T2 sequence (P35354 18-604): T1 sequence (P35354 18-604)

prostaglandin synthesis = conditions: in vitro, relative to indomethacin; cited from earlier work
[4] = target: T3, COX-2 purified from rabbit alveolar macrophage (Oryctolagus cuniculus, UniProt O02768); conditions: cited from earlier work
T3 construct: from tissue; host or cells: rabbit alveolar macrophage
T3 sequence (O02768 18-604): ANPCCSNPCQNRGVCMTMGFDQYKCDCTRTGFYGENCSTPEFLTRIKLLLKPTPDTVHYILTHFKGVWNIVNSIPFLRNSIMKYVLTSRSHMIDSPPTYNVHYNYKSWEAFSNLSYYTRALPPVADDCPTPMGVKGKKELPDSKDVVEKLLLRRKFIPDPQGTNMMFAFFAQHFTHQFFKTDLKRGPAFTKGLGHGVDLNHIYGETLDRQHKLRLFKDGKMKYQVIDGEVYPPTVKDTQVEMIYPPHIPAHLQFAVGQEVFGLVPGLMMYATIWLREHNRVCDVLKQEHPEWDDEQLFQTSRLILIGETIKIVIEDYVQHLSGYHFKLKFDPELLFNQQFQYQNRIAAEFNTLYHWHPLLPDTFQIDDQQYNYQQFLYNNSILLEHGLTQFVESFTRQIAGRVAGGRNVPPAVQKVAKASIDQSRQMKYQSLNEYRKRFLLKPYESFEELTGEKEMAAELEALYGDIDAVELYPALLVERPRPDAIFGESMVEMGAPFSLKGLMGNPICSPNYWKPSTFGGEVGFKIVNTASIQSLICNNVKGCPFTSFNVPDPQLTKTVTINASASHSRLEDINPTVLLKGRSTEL

[5] = system: choroidal neovascularization (CNV); assay: Laser photocoagulation-induced choroidal neovascularization in mice; assay type: in vivo, C57BL/6J mice; conditions: 2 weeks of treatment after laser burn, versus saline, BF 0.1% topical 4 μL four times per day, sVEGFR-1/Fc 250 ng
Method: Methods: Six-week female C57BL/6J mice received laser burns with 514-argon laser at the posterior retina; 19 mice with successful burns were randomly assigned to 1 of 3 treatment groups: BF 0.1%, saline with or without 250 ng sVEGFR-1/Fc immediately after laser burn. Mice were treated with 4 μL of BF 0.1% or saline four times per day for 2 weeks. Then deeply anaesthetized mice were perfused with 50 mg/mL flourescein-labeled dextran, eyes were enucleated and fixed in buffered formalin. Flat mounts of the RPE-choroid-sclera were observed by fluorescence microscope. Total area of hyperfluorescent neovascualature was measured using image-analysis software

[6] = cited from earlier work

Sequence of COX-1 (P23219 24-599): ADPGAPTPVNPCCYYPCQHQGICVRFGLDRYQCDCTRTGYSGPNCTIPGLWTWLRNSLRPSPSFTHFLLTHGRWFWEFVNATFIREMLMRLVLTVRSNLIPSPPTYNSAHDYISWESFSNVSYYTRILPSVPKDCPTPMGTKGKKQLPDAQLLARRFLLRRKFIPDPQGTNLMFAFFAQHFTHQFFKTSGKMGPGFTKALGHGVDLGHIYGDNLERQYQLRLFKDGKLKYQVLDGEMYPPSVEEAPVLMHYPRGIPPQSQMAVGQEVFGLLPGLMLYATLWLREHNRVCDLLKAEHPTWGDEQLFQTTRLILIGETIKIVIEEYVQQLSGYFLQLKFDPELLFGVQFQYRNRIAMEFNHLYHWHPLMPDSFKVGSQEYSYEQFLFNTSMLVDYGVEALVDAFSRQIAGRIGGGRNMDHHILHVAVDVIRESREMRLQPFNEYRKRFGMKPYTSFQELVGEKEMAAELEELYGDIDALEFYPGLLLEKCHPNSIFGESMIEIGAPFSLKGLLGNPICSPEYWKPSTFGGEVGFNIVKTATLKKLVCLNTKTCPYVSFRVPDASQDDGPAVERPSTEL

Molecule: NC(CO)(CO)CO.O=C(c1ccccc1)c1ccc2n1CCC2C(=O)O (racemic) [ketorolac, (±)-5-benzoyl-2,3-dihydro-1H pyrrolizine-1-carboxylic acid, 2-amino-2-(hydroxymethyl)-1,3-propanediol salt (1:1)]
- Ratio COX-1/COX-2 (COX-2 [1]): 0.167
- IC50 (COX-1): 0.02 µM
- IC50 (COX-2 [2]): 0.12 µM

Molecule: Nc1c(CC(=O)[O-])cccc1C(=O)c1ccc(Br)cc1.Nc1c(CC(=O)[O-])cccc1C(=O)c1ccc(Br)cc1.O.O.O.[Na+].[Na+] [bromfenac, sodium 2-amino-3-(4-bromobenzoyl)phenylacetate sesquihydrate]
- stability in aqueous solution [3]: stable for a long period of time
- inhibitory effect on COX-2, times more potent than ketorolac (human recombinants COX-2): 18 times
- inhibition of prostaglandin synthesis, times greater than indomethacin (prostaglandin synthesis): approximately 12 times
- inhibitory effect on COX-2, times greater than amfenac ([4]; relative to amfenac): 6.5 times
- inhibitory effect on COX-2, times greater than diclofenac ([4]; relative to diclofenac): 3.7 times
- reduction of area of choroidal neovascularization (CNV lesions) [5]: 71%
- IC50 (COX-2 [2]): 0.023 µM

- Ratio COX-1/COX-2 (COX-2 [1]): 1.67
Molecule: NC(=O)Cc1cccc(C(=O)c2ccccc2)c1N [nepafenac, 2-amino-3-benzoyl-benzeneacetamide]
- IC50 (COX-1): 0.25 µM
- IC50 (COX-2 [2]): 0.15 µM

Molecule: Lucentis: recombinant humanized IgG1 kappa isotype monoclonal antibody fragment designed for intravitreal use
- rate of arterial thromboembolic events ([6]; Lucentis clinical trials): < 4%
- serious adverse reactions related to the intravitreal injection procedure ([6]; endophthalmitis, rhegmatogenous retinal detachments, iatrogenic traumatic cataracts): < 0.1 % of injections
- time after intravitreal injection at which increases in intraocular pressure were noted ([6]; human, in vivo): ≤ 60 min
- other serious ocular adverse reactions ([6]; intraocular inflammation and increased intraocular pressure): < 2 % of patients
